Experimental data as given in ChEMBL document CHEMBL5096238 (J Med Chem, 2022).
pIC50: −log10 of the molar value. Each block holds one compound with its values, some of them ahead of it.

Key:
[1] = biological target: T1, Hepatocyte growth factor receptor (Homo sapiens, UniProt P08581); assay: Inhibition of N-terminal His/SUMO tagged wild type human c-Met (1038 to 1346 residues) transfected in Escherichia coli using Tyr06 peptide as substrate incubated for 1 hr in presence of ATP by FRET-based Z'-Lyte assay
Hs746T = assay: cells; settings: Homo sapiens, 120 h
[2] = Apparent permeability across apical to basolateral side in human Caco-2 cells at 10 uM incubated for 120 mins by LC-MS/MS analysis; assay type: ADME, cell-based
[3] = AUC(0 to t) in Sprague-Dawley rat at 10 mg/kg, po measured for 24 hrs by LC-MS/MS analysis; assay type: ADME, organism-based; set-up: time 24 hrs, dose 10 mg/kg, route po; settings: in vivo
Cytochrome P450 3A4 = Cytochrome P450 3A4 (Homo sapiens, UniProt P08684); assay: Inhibition of CYP3A4 (unknown origin) in microsomes sing testosterone as a substrate preincubated for 5 mins followed by NADPH addition by LC-MS/MS analysis; assay type: ADME, Microsome
BaF3 [4] = assay: Induction of apoptosis in mouse BaF3 cells harboring wild type Tpr-Met fusion protein assessed as viable cells at 20 nM incubated for 48 hrs by Annexin V/7-AAD staining based flow cytometry analysis (reference value: 89.76%); assay type: functional; settings: read-out: Activity
[5] = biological target: Hepatocyte growth factor receptor (Mus musculus) (UniProt P16056); settings: BaF3, dose 1.1-30 nM, time 12.0 hrs
[6] = biological target: Voltage-gated inwardly rectifying potassium channel KCNH2 (Homo sapiens, UniProt Q12809); assay: Inhibition of hERG expressed in HEK293 cells by whole-cell patch clamp technique; assay type: toxicity, cell-based
[7] = Half life in Sprague-Dawley rat at 2 mg/kg, iv measured for 24 hrs by LC-MS/MS analysis; assay type: ADME, organism-based; settings: in vivo
[8] = Apparent volume of distribution in Sprague-Dawley rat at 2 mg/kg, iv measured for 24 hrs by LC-MS/MS analysis; assay type: ADME, organism-based; settings: in vivo, read-out: Vz
[9] = Tmax in Sprague-Dawley rat at 2 mg/kg, iv measured for 24 hrs by LC-MS/MS analysis; assay type: ADME, organism-based; settings: in vivo
Cytochrome P450 2D6 = Cytochrome P450 2D6 (Homo sapiens, UniProt P10635); assay: Inhibition of CYP2D6 (unknown origin) in microsomes preincubated for 5 mins followed by NADPH addition by LC-MS/MS analysis; assay type: ADME, Microsome
[10] = Half life in Sprague-Dawley rat at 10 mg/kg, po measured for 24 hrs by LC-MS/MS analysis; assay type: ADME, organism-based; settings: in vivo
[11] = biological target: T1, Hepatocyte growth factor receptor; settings: Hs746T, dose 1.1-30 nM, time 12.0 hrs
[12] = biological target: T2, Tyrosine-protein kinase receptor UFO (Homo sapiens, UniProt P30530); assay: Inhibition of AXL (unknown origin)
T2 sequence (P30530 whole entry): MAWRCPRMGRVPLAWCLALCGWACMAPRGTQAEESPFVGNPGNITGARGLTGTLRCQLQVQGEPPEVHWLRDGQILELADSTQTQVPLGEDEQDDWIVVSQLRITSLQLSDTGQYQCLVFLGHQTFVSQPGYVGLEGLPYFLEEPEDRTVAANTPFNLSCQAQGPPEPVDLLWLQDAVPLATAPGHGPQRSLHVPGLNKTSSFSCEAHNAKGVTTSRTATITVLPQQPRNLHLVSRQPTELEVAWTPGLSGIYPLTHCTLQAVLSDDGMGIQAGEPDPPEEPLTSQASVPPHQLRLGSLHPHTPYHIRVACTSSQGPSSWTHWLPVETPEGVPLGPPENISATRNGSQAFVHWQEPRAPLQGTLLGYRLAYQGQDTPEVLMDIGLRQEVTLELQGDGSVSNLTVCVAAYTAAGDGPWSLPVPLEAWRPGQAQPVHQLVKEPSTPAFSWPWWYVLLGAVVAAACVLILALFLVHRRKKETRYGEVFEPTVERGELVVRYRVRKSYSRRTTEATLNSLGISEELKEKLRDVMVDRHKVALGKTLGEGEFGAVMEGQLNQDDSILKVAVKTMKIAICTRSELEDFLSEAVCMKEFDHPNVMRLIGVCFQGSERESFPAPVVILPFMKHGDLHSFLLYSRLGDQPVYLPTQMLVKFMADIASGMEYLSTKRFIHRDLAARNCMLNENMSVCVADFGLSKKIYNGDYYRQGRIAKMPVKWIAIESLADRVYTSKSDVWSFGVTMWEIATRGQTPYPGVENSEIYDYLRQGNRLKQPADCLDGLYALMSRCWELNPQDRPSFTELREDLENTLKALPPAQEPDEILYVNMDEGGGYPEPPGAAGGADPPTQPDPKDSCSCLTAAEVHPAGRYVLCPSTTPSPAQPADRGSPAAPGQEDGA

[13] = Oral bioavailability in Sprague-Dawley rat at 10 mg/kg measured for 24 hrs by LC-MS/MS analysis; assay type: ADME, organism-based; settings: in vivo
[14] = MRT (0 to t) in Sprague-Dawley rat at 2 mg/kg, iv measured for 24 hrs by LC-MS/MS analysis; assay type: ADME, organism-based; settings: in vivo
BaF3 [15] = assay: Induction of apoptosis in mouse BaF3 cells harboring wild type Tpr-Met fusion protein assessed as viable cells at 40 nM incubated for 48 hrs by Annexin V/7-AAD staining based flow cytometry analysis (reference value: 89.76%); assay type: functional; settings: read-out: Activity
[16] = Bioavailability in Sprague-Dawley rat at 10 mg/kg, ip measured for 24 hrs by LC-MS/MS analysis; assay type: ADME, organism-based; settings: in vivo
[17] = Tmax in Sprague-Dawley rat at 10 mg/kg, po measured for 24 hrs by LC-MS/MS analysis; assay type: ADME, organism-based; settings: in vivo
[18] = MRT (0 to t) in Sprague-Dawley rat at 10 mg/kg, po measured for 24 hrs by LC-MS/MS analysis; assay type: ADME, organism-based; settings: in vivo
[19] = Clearance in Sprague-Dawley rat at 2 mg/kg, iv measured for 24 hrs by LC-MS/MS analysis; assay type: ADME, organism-based; settings: in vivo
[20] = Tmax in Sprague-Dawley rat at 10 mg/kg, ip measured for 24 hrs by LC-MS/MS analysis; assay type: ADME, organism-based; settings: in vivo
[21] = MRT (0 to t) in Sprague-Dawley rat at 10 mg/kg, ip measured for 24 hrs by LC-MS/MS analysis; assay type: ADME, organism-based; settings: in vivo
Cytochrome P450 2C9 = Cytochrome P450 2C9 (Homo sapiens, UniProt P11712); assay: Inhibition of CYP2C9 (unknown origin) in microsomes preincubated for 5 mins followed by NADPH addition by LC-MS/MS analysis; assay type: ADME, Microsome
[22] = AUC(0 to t) in Sprague-Dawley rat at 2 mg/kg, iv measured for 24 hrs by LC-MS/MS analysis; assay type: ADME, organism-based; set-up: time 24 hrs, dose 2 mg/kg, route iv; settings: in vivo
[23] = Cmax in Sprague-Dawley rat at 10 mg/kg, ip measured for 24 hrs by LC-MS/MS analysis; assay type: ADME, organism-based; set-up: time 24 hrs, dose 10 mg/kg, route ip; settings: in vivo
[24] = AUC(0 to t) in Sprague-Dawley rat at 10 mg/kg, ip measured for 24 hrs by LC-MS/MS analysis; assay type: ADME, organism-based; set-up: dose 10 mg/kg, time 24 hrs, route ip; settings: in vivo
[25] = Half life in Sprague-Dawley rat at 10 mg/kg, ip measured for 24 hrs by LC-MS/MS analysis; assay type: ADME, organism-based; settings: in vivo
[26] = Cmax in Sprague-Dawley rat at 10 mg/kg, po measured for 24 hrs by LC-MS/MS analysis; assay type: ADME, organism-based; set-up: dose 10 mg/kg, time 24 hrs, route po; settings: in vivo
[27] = Cmax in Sprague-Dawley rat at 2 mg/kg, iv measured for 24 hrs by LC-MS/MS analysis; assay type: ADME, organism-based; set-up: dose 2 mg/kg, time 24 hrs, route iv; settings: in vivo
BaF3 [28] = assay: Induction of apoptosis in mouse BaF3 cells harboring wild type Tpr-Met fusion protein assessed as viable cells at 10 nM incubated for 48 hrs by Annexin V/7-AAD staining based flow cytometry analysis (reference value: 89.76%); assay type: functional; settings: read-out: Activity
AGS = assay: cells; settings: Homo sapiens, 120 h
BaF3 [29] = assay: cells; settings: Mus musculus, BaF3, 72 h
SNU-16 = assay: cells; settings: Homo sapiens, SNU-16, 120 h
BaF3 [30] = assay: cells; settings: Mus musculus, BaF3, 72 h; remark: listed apart in the source
BaF3 [31] = assay: cells; settings: Mus musculus, BaF3, 72 h; remark: listed apart in the source
BaF3 [32] = assay: cells; settings: Mus musculus, BaF3, 72 h; remark: listed apart in the source
BaF3 [33] = assay: cells; settings: Mus musculus, BaF3, 72 h; remark: listed apart in the source
BaF3 [34] = assay: cells; settings: Mus musculus, BaF3, 72 h; remark: listed apart in the source
BaF3 [35] = assay: cells; settings: Mus musculus, BaF3, 72 h; remark: listed apart in the source
BaF3 [36] = assay: cells; settings: Mus musculus, BaF3, 72 h; remark: listed apart in the source

T1 sequence (P08581 whole entry, the tested form may be a part): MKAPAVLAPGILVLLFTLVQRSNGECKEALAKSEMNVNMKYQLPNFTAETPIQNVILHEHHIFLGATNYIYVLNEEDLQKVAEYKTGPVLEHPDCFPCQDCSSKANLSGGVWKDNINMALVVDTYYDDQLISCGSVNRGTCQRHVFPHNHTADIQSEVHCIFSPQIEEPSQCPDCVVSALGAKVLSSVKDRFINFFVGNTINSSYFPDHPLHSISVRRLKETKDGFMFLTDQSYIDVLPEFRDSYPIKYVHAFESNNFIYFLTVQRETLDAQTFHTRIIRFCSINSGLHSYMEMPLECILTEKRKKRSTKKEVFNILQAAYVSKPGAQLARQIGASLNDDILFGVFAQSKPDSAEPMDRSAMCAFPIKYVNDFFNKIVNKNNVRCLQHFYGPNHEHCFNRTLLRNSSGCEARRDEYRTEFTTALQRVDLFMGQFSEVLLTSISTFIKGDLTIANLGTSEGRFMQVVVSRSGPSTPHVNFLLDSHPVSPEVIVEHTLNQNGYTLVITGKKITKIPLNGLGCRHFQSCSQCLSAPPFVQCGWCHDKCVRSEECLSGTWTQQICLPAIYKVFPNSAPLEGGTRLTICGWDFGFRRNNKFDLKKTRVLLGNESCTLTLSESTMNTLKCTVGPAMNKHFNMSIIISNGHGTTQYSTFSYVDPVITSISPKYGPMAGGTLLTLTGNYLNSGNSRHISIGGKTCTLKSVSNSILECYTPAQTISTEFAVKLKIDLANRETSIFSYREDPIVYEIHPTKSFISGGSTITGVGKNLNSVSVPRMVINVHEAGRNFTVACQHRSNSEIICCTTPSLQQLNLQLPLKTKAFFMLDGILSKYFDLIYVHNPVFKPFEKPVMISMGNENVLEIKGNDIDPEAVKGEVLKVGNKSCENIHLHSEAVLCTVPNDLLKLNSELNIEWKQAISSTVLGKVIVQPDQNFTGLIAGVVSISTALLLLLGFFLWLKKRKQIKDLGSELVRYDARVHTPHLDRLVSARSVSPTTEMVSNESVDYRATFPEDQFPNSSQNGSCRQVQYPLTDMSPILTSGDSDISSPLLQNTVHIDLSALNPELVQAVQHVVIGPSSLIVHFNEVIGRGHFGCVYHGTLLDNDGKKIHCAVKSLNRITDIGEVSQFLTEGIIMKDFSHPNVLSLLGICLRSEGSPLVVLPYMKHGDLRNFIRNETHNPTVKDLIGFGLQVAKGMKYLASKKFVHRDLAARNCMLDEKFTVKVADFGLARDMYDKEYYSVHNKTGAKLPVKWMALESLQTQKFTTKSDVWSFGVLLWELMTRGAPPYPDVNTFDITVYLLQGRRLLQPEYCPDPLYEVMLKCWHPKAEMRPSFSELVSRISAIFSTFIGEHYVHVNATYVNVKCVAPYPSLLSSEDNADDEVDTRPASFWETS
Sequence of Hepatocyte growth factor receptor (Mus musculus) (P16056 whole entry): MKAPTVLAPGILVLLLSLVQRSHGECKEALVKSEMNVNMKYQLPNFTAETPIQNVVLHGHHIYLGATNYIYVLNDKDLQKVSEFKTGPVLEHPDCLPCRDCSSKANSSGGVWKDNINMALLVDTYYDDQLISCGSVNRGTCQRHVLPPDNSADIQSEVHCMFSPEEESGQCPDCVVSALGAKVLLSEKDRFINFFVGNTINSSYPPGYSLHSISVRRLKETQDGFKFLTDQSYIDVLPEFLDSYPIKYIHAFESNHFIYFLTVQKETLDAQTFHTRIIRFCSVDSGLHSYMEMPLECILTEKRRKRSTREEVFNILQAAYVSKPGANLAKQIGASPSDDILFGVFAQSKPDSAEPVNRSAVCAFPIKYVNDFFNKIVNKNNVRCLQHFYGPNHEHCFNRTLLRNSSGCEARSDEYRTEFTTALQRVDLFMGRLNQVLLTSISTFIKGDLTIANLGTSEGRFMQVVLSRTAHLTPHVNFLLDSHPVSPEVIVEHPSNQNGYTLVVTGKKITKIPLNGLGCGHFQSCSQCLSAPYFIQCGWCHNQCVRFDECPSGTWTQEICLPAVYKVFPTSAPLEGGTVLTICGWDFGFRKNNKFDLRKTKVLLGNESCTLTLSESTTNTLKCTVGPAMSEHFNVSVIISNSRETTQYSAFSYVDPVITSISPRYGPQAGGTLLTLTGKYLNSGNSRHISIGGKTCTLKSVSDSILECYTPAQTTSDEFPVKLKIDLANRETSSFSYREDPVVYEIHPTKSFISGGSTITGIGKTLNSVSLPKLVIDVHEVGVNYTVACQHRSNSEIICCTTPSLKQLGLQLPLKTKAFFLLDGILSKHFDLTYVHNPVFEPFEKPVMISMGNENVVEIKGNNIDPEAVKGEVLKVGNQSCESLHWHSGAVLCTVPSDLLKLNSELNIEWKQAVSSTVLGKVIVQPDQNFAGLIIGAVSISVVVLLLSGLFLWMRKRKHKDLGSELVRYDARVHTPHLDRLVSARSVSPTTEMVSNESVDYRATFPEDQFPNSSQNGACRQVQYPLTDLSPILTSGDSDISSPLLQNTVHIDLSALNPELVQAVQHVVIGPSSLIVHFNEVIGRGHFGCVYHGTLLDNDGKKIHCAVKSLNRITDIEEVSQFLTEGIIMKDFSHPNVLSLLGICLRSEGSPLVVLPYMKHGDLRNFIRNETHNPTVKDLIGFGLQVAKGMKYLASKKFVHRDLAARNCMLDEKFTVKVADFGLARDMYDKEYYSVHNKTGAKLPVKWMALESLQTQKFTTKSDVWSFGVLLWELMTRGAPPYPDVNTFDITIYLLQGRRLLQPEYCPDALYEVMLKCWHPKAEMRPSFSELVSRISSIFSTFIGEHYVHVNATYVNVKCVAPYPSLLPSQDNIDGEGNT
Sequence of Voltage-gated inwardly rectifying potassium channel KCNH2 (Q12809 whole entry): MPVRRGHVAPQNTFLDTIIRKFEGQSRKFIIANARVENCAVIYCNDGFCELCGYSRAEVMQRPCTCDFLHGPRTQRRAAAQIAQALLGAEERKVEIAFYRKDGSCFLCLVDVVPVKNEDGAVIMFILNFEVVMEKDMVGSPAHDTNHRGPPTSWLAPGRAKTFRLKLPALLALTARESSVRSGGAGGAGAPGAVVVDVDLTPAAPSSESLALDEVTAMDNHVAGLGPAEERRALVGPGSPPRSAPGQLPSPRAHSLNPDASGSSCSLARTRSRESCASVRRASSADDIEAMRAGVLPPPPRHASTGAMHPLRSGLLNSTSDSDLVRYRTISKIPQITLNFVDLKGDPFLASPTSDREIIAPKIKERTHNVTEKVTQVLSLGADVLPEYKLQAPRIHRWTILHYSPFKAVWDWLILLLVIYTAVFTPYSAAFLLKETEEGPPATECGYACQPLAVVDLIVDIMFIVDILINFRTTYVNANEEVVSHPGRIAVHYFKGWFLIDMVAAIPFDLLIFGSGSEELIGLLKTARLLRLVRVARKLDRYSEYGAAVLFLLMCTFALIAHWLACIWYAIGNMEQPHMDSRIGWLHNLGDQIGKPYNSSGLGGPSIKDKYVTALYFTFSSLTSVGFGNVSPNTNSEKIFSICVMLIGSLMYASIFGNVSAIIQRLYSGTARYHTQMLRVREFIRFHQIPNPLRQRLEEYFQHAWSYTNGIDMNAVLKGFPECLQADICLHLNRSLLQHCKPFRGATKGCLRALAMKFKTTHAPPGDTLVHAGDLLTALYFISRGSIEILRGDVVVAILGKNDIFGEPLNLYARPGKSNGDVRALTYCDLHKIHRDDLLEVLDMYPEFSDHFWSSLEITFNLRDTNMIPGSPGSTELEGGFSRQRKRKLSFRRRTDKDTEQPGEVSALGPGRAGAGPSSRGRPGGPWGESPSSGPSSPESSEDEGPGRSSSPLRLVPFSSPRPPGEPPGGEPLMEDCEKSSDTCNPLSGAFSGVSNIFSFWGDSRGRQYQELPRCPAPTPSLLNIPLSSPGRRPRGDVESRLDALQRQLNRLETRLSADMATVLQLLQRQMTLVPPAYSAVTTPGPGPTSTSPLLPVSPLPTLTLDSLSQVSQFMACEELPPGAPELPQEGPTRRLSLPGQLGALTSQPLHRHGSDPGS
Sequence of Cytochrome P450 2D6 (P10635 whole entry): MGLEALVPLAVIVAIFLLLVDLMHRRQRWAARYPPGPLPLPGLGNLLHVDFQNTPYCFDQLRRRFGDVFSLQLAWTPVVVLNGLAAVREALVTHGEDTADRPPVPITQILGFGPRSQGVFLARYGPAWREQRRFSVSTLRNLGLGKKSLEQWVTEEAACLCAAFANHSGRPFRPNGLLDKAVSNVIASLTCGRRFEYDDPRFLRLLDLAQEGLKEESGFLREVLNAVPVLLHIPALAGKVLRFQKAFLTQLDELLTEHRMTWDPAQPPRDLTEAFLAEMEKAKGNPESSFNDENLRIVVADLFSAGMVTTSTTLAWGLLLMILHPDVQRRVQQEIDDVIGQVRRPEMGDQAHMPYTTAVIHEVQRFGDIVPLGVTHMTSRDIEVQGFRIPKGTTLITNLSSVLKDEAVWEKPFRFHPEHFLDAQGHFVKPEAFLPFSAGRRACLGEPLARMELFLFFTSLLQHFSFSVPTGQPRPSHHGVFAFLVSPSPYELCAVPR
Sequence of Cytochrome P450 2C9 (P11712 whole entry): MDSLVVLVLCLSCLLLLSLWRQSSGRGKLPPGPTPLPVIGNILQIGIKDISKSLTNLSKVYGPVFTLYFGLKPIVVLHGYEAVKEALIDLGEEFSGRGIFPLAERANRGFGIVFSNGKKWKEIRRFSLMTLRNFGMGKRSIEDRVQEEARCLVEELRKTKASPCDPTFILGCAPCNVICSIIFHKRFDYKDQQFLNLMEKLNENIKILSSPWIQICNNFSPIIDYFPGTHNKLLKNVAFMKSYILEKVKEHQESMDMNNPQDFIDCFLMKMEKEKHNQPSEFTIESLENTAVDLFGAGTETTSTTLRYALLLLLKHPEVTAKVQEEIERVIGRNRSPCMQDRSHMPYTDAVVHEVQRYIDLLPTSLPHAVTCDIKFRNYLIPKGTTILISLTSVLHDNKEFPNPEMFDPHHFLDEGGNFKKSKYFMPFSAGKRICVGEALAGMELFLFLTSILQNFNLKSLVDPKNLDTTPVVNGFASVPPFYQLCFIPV

pIC50 [1]: 8.48
pIC50 (Hs746T): 6.79
Papp A→B at 2 h, 10 µM [2]: 0.29 ×10⁻⁶ cm/s
Structure (SMILES): O=C1NCCCCCn2cc(cn2)-c2cnc3ccc(cc3c2)CCn2nc(ccc2=O)-c2ccc1c(C(F)(F)F)c2

AUC(0-t) at 24 h [3]: 48.9 ng·h/mL
pIC50 (Cytochrome P450 3A4): < 5.00
inhibition [5]: Dde
half-life [7]: 34.2 min
Vd [8]: 3.47 L/kg
Tmax [9]: 4.8 min
pIC50 (Cytochrome P450 2D6): < 5.00
half-life [10]: 149 min
inhibition [11]: Dde
pIC50 [12]: 6.40
pIC50 [1]: 8.54
bioavailability [13]: 2.02%
MRT last at 24 h [14]: 21.6 min
bioavailability [16]: 33.9%
Tmax [17]: 15 min
MRT last at 24 h [18]: 103 min
clearance [19]: 70.1 mL/min/kg
Papp A→B at 2 h, 10 µM [2]: 0.53 ×10⁻⁶ cm/s
Tmax [20]: 15 min
MRT last at 24 h [21]: 204 min
pIC50 (Cytochrome P450 2C9): < 5.00
AUC(0-t) at 24 h [22]: 484 ng·h/mL
Cmax [23]: 282 ng/mL
AUC(0-t) at 24 h [24]: 820 ng·h/mL
half-life [25]: 278 min
Cmax [26]: 61 ng/mL
Cmax [27]: 1070 ng/mL
Structure (SMILES): O=C1NCCCCn2cc(cn2)-c2cnc3ccc(cc3c2)CCn2nc(ccc2=O)-c2ccc1c(C(F)(F)F)c2
viability at 0.02 µM (BaF3 [4]): 75.4%
pIC50 [6]: 4.56
viability at 0.04 µM (BaF3 [15]): 42.9%
viability at 0.01 µM (BaF3 [28]): 87%

pIC50 (AGS): 5.84
pIC50 (BaF3 [29]): 8.06
pIC50 (SNU-16): 6.44
pIC50 (BaF3 [30]): 5.62
pIC50 (BaF3 [31]): 8.60
pIC50 (BaF3 [32]): 7.44
pIC50 (BaF3 [33]): 5.51
pIC50 (Hs746T): 8.35
pIC50 (BaF3 [34]): 8.82
pIC50 (BaF3 [35]): 7.33
pIC50 (BaF3 [36]): 8.00
Structure (SMILES): CN1CCC(COc2cnc(-c3cccc(Cn4nc(-c5cccc(C#N)c5)ccc4=O)c3)nc2)CC1 [TEPOTINIB]

pIC50 [12]: 6.78
pIC50 [1]: 8.27
Structure (SMILES): CNC(=O)c1ccc(-c2ccc(=O)n(CCc3ccc4ncc(-c5cnn(C6CCOCC6)c5)cc4c3)n2)cc1C(F)(F)F
